Values of other authors as cited in patent US12527815B2, “Aqueous formulation including dissolved hydrogen gas and minerals and additives” (BEST PLANET SCIENCE LLC, priority 2023, dated 2026).

Conditions: partial pressure of one atm

[HH] [hydrogen gas, hydrogen]
equilibrium concentration (saturation) of hydrogen gas in water: 1.57 mg/L
